Laboratory results published in patent publication US20020172974A1, “Method of screening for antimicrobial compounds” (priority 1997, published 2002).

Assays:
S. aureus RN4220 [pKF1] = test: dual culture bioluminescence assay, reading after octanal addition minus initial reading; assay type: cell-based; conditions: E. coli/S. aureus co-culture, 5 hours at 37° C., RLU after octanal minus initial reading, FIG. 3
Method: S. aureus RN4220 [pKF1] has a plasmid that contains only luxAB genes so bioluminescence is dependent on the addition of aldehyde substrate. Chloramphenicol resistance is used as a selective marker for plasmid maintenance.
(§1) S. aureus RN4220 [PKF1] was grown overnight at 37° C. in Brain Heart Infusion (BHI) broth containing 10 ug/ml chloramphenicol to give approximately 1×10^9 CFU/ml. The overnight cultures were diluted to give 1×10^6 CFU/ml for E. coli and 1×10^7 CFU/ml for S. aureus and 25 μl of each organism was added to each well.
(§2) Test compounds were serially diluted in BHI and 50 μl was added to each well of a 96 well microtitre plate.
(§3) The plate was incubated for 5 hours at 37° C. and bioluminescence from compound treated cells was compared with non-treated cells using a luminometer (Wallac LB96B) to give bioluminescence output for E. coli (no substrate addition).
To monitor the effect of the antibiotics on S. aureus bioluminescence 50 μl of 0.01% (v/v) octanal substrate was added to each well and bioluminescence was measured immediately after substrate addition to each individual well (Total RLU's for both E. coli and S. aureus). To obtained RLU's for S. aureus the initial RLU reading was subtracted from the reading taken immediately following substrate addition.

E. coli JM109 [pSB311] = test: dual culture bioluminescence assay, reading before octanal substrate addition; assay type: cell-based; conditions: E. coli/S. aureus co-culture, 5 hours at 37° C., FIG. 1
Method: E. coli JM109 [pSB311] has a plasmid that contains the entire lux gene cassette (luxCDABE) from Photorhabdus luminescens. In this organism bioluminescence initiation is independent on the addition of aldehyde substrate.
E. coli JM109 was grown overnight at 37° C. in Brain Heart Infusion (BHI) broth to give approximately 1×10^9 CFU/ml.
as §1, §2, §3

SMILES	activity against S. aureus (in words) (S. aureus RN4220 [pKF1])	potency against E. coli (comparison in words) (E. coli JM109 [pSB311]; compared with mupirocin)	concentrations required to inhibit bioluminescence (E. coli JM109 [pSB311]; no substrate addition)
CC1(C)S[C@@H]2[C@H](NC(=O)[C@H](N)c3ccc(O)cc3)C(=O)N2[C@H]1C(=O)O [Amoxicillin]	potent activity	more potent	
C/C(=C\C(=O)OCCCCCCCCC(=O)O)C[C@@H]1OC[C@H](C[C@@H]2O[C@H]2[C@@H](C)[C@H](C)O)[C@@H](O)[C@H]1O [mupirocin]	potent activity		greater than 64 μl/ml
